Experimental data from article PMC11680790, “Structural and functional determination of peptide versus small molecule ligand binding at the apelin receptor” (Nature Communications, 2024).
Where a chain is given by its changes, count along the chain named. Blank lines part the entries; values can stand above or below the molecule they belong to. Where no end group is shown, it is not given here. 647 dye = not defined here

Columns and labels:
[1] = biological target: T1, R/H168^4.64 variant apelin receptor (Homo sapiens, UniProt P35414, R168H); experiment: Saturation radioligand binding, CHO-K1 membranes, R/H168^4.64
T1 construct: expressed in transfected cells; host or cells: CHO-K1, transient, pcDNA3.1
T1 sequence (P35414 1-380 R168H): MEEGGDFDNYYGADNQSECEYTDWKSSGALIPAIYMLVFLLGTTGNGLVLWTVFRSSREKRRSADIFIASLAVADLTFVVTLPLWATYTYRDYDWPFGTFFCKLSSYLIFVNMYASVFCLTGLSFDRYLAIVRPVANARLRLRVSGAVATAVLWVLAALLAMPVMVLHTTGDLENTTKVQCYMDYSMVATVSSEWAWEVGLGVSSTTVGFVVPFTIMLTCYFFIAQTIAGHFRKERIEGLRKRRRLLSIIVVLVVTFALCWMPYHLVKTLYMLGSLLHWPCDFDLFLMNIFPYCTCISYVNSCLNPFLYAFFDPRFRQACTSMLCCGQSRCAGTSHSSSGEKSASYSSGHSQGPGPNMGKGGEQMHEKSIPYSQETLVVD
Experimental: (§1) The radiolabel has a specific activity of 2200 Ci/mmol. Plastic-ware used in radioligand binding experiments was coated with Sigmacote, a siliconising reagent that forms a covalent film to reduce sticking of the radiolabel.
(§2) Membrane protein preparations were made by harvesting CHO-K1 cells transiently transfected with wild-type or variant apelin receptor construct into tubes. Tubes were spun at 1000 xg for 10 min at 4 °C to pellet cells, before resuspending and triturating in ice-cold TRIS wash buffer (50 mM TRIS-HCl in deionised water, pH balanced to 7.4 at room temperature) to induce complete hypotonic lysis of cells. Cells were spun a second time at 21,000 × g for 20 min at 4 °C, to obtain a crude membrane fraction. Supernatant was discarded and membrane preparations resuspended in TRIS wash buffer. Cell membrane preparations were stored at –70 °C until use in experiments. Protein concentration of cell membrane preparations was determined using a DC Protein Assay (Bio-Rad), as per the manufacturer’s instructions.
(§3) For binding experiments, membrane preparations were diluted in binding buffer (50 mM TRIS-HCl and 5 mM MgCl2, balanced to pH 7.4 at room temperature) to give a final protein concentration of 1 mg/mL. […] At the end-point, samples were spun in a centrifuge at 20,000 × g for 10 min at 4 °C to terminate equilibrium. […]

[2] = test system: R/H168^4.64 apelin receptor, hESC; experiment: Saturation radioligand binding, R/H168^4.64 hESC membranes; design: species or system human
Experimental: as §1, §2, §3

[3] = test system: R/H168^4.64 apelin receptor, hESC-CM; experiment: Saturation radioligand binding, R/H168^4.64 hESC-CM membranes; design: species or system human
Experimental: as §1, §2, §3

[4] = biological target: T2, wild-type apelin receptor (Homo sapiens, UniProt P35414); experiment: Saturation radioligand binding, CHO-K1 membranes, wild-type; conditions: WT; mean ± SD, n = 3
T2 construct: expressed in transfected cells; host or cells: CHO-K1 (ECACC 85051005), transient, pcDNA3.1
T2 sequence (P35414 1-380): T1 sequence (P35414 1-380 R168H) with H168R
Experimental: as §1, §2, §3

[5] = biological target: T3, T/M89^2.64 variant apelin receptor (Homo sapiens, UniProt P35414, T89M); experiment: Saturation radioligand binding, CHO-K1 membranes, T/M89^2.64; conditions: mean ± SD, n = 3
T3 construct: expressed in transfected cells; host or cells: CHO-K1, transient, pcDNA3.1
T3 sequence (P35414 1-380 T89M): T1 sequence (P35414 1-380 R168H) with T89M, H168R
Experimental: as §1, §2, §3

[6] = test system: untransfected CHO-K1 cells; experiment: Saturation radioligand binding, untransfected CHO-K1 membranes
[7] = biological target: T4, V/L38^1.42 variant apelin receptor (Homo sapiens, UniProt P35414, V38L); experiment: Saturation radioligand binding, CHO-K1 membranes, V/L38^1.42
T4 construct: expressed in transfected cells; host or cells: CHO-K1, transient, pcDNA3.1
T4 sequence (P35414 1-380 V38L): T1 sequence (P35414 1-380 R168H) with V38L, H168R
Experimental: as §1, §2, §3

[8] = test system: T/X227^5.64 variant apelin receptor; experiment: Saturation radioligand binding, CHO-K1 membranes, T/X227^5.64; design: species or system human
Experimental: as §1, §2
(§4) For binding experiments, membrane preparations were diluted in binding buffer (50 mM TRIS-HCl and 5 mM MgCl2, balanced to pH 7.4 at room temperature) to give a final protein concentration of 1 mg/mL. […] At the end-point, samples were spun in a centrifuge at 20,000 × g for 10 min at 4 °C to terminate equilibrium. Supernatant was aspirated, and pellets were resuspended and triturated in 500 μL ice-cold wash buffer, over ice. Samples were spun a second time at 20,000 × g for 10 min at 4 °C, before aspiration of the supernatant. Radioactivity in pellets was counted using a Cobra II model 5003 gamma counter (Packard).
(§5) Saturation binding data were analysed using the EBDA and LIGAND components of the KELL (Kinetic, EBDA, Ligand, Lowry) software package (Biosoft)[58] to generate receptor affinity (KD) and receptor density (Bmax) values. […] Saturation data were presented using the nonlinear one site-specific binding with Hill slope model fitted by GraphPad Prism version 6.07 for Windows (GraphPad Software).

[9] = test system: G/X45^1.49 variant apelin receptor; experiment: Saturation radioligand binding, CHO-K1 membranes, G/X45^1.49; design: species or system human
Experimental: as §1, §2, §4, §5

[10] = biological target: apelin receptor, homogenised human left ventricle; conditions: previously determined by saturation analysis in homogenised human left ventricle; cited from earlier work
Experimental: Heart Homogenate. Ethically approved (Research Ethics Committee 05/Q104/142) surgical samples of human left ventricle tissue were obtained with informed consent at the time of operation from Royal Papworth Hospital Tissue Bank and stored at -80°C. Tissues were homogenised using a Polytron Homogenizer (Thomas Scientific), in buff ...

[11] = test system: T/X227^5.64 variant apelin receptor; experiment: High content screening, fluorescent ligand binding in transfected CHO-K1 cells, T/X227^5.64; design: species or system human; conditions: 1 µM, 90 min, mean ± SD, n = 4 in triplicate
Experimental: (§6) Cells were maintained at 37 °C, in humidified air containing 5% CO2.
(§7) High content screening was used to characterise apelin receptor variant expression, membrane localisation, and fluorescent ligand binding. CHO-K1 cells transiently transfected with wild-type or variant apelin receptor construct tagged C-terminally with eGFP were plated at ~10,000/well in CellCarrier-96 Ultra Plates (PerkinElmer). […] Fluorescent ligand was washed out with HBSS, and cells were fixed with 4% formaldehyde for ~3 min. […] After a final wash, cells were maintained in 100 µL HBSS.
(§8) Cells maintained in the 96-well plates were imaged on an Opera Phenix High Content Screening System (PerkinElmer), a highly sensitive, dual-camera spinning disk confocal fluorescent imaging platform, using a 40x/NA1.1 water immersion objective. […] Three fluorescent channels were used. […] For all channels, excitation laser intensity was set at 50% power, with a 50 ms exposure time. Additionally, each imaging field was imaged using bright-field and digital phase contrast (DPC). […]
(§9) Mean membrane fluorescence was then quantified for the green channel as an indication of membrane protein expression, and for the red channel as an indication of fluorescent ligand binding.

[12] = test system: G/X45^1.49 variant apelin receptor; experiment: High content screening, fluorescent ligand binding in transfected CHO-K1 cells, G/X45^1.49; design: species or system human; conditions: 1 µM, 90 min, mean ± SD, n = 4 in triplicate
Experimental: as §6, §7, §8, §9

[13] = 90 min, room temperature, pH 7.4

Bmax [1]: NBD
Hill slope (nH) [1]: NBD
[125I]-apelin-13 binding versus wild-type [2]: significantly reduced
[125I]-apelin-13 binding versus wild-type [3]: significantly reduced
Bmax [4]: 236.80 ± 27.07 fmol/mg
Hill slope (nH) [4]: 1.26 ± 0.22
Bmax [5]: 440.47 ± 38.36 fmol/mg
Hill slope (nH) [5]: 1.55 ± 0.22
Bmax [7]: NBD
Hill slope (nH) [7]: NBD
Bmax [8]: NBD
Hill slope (nH) [8]: NBD
KD [8, 13]: NBD
Bmax [9]: NBD
Hill slope (nH) [9]: NBD
KD [9, 13]: NBD
Molecule: CCCC[C@H](NC(=O)[C@@H]1CCCN1C(=O)CNC(=O)[C@H](CCCCN)NC(=O)[C@H](Cc1c[nH]cn1)NC(=O)[C@H](CO)NC(=O)[C@H](CC(C)C)NC(=O)[C@H](CCCNC(=N)N)NC(=O)[C@@H]1CCCN1C(=O)[C@H](CCCNC(=N)N)NC(=O)[C@@H]1CCC(=O)N1)C(=O)N1CCC[C@H]1C(=O)N[C@@H](Cc1ccc(O)c(I)c1)C(=O)O [[^125I]-apelin-13]
Bmax [6]: NBD
Hill slope (nH) [6]: NBD
KD [6, 13]: NBD
Kd [10]: 0.076 nM

Molecule: ELA647: fluorescently labelled ELA peptide ({647 dye}-QRPVNLTMRRKLRKHNCLQRRCMPLHSRVPFP; ends and bridges not checked; UniProt P0DMC3 23-54, looked up)
Mem. ELA647 [11]: 14.83 ± 7.02 % WT
Mem. ELA647 [12]: 20.73 ± 12.55 % WT
